Data on four compounds can be found in US10294234B2, “HIV inhibitor compounds” (priority 2017, dated 2019).

The nature of data set [1]: in vivo. The note with it: for Vd / DOG IV CL: iv; for DOG IV T1/2: IV infusion over 30 minutes, 0.5 or 1.0 mg/kg. As to the method: Pharmacokinetic Profiling Dog PK
Each dosing group consisted of three non-naïve male beagle dogs. At dosing, the animals weighed between 9 to 12 kg. The animals were fasted overnight prior to dose administration and up to four hours after dosing. The test article was administered by intravenous infusion over 30-minutes. The rate of infusion was adjusted according to the body weight of each animal to deliver a dose of 0.5 or 1.0 mg/kg. For the oral dosing group, the test article was administered by oral gavage at a dose volume of 2 mL/kg.
Serial venous blood samples (approximately 1.0 mL each) were collected at predose and 0.25, 0.48, 0.58, 0.75, 1.0, 1.5, 2, 4, 8, 12 and 24 hours post dose from each animal for the IV dosing group; blood samples were collected at predose, 0.25, 0.50, 1, 2 4, 6, 8,12 and 24 hours post dose for the oral dosing group. The blood samples were collected into Vacutainer™ tubes containing EDTA-K2 as the anti-coagulant and were immediately placed on wet ice pending centrifugation for plasma. An LC/MS/MS method was used to measure the concentration of test compound in plasma. Non-compartmental pharmacokinetic analysis was performed on the plasma concentration-time data. VSS=apparent volume of distribution, t1/2=half life, F=oral bioavailability.

The nature of data set [2]: in vivo. The note with it: for Vd / RAT IV CL / RAT IV T1/2: iv. A digest of the protocol: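 Male SD rats (n=3/group, 0.27–0.32 kg), fasted overnight, given 0.5 or 1.0 mg/kg by 30-min IV infusion, or by oral gavage. Serial plasma samples (EDTA-K2) over 24 h measured by LC/MS/MS; non-compartmental PK analysis.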
Data set [3] relates to HIV-1 (IIIB) in MT-4 cells. Description: MT-4 HIV High Resolution Antiviral Assay. Format: cell-based. As to the method:
Compounds were tested in a high-throughput 384-well assay format for their ability to inhibit the replication of HIV-1 (IIIB) in MT-4 cells. Compounds were serially diluted (1:3) in DMSO on 384-well polypropylene plates and further diluted 200-fold into complete RPMI media (10% FBS, 1% P/S) using the Biotek Micro Flow and Agilent ECHO acoustic dispenser. Each plate contained up to 8 test compounds, with negative (No Drug Control) and 5 uM AZT positive controls. MT-4 cells were pre-infected with 10 uL of either RPMI (mock-infected) or a fresh 1:250 dilution of an HIV-1 (IIIB) concentrated virus stock. Infected and uninfected MT-4 cells were further diluted in complete RPMI media and added to each plate using a Micro Flow dispenser. After 5 days incubation in a humidified and temperature controlled incubator (37° C.), Cell Titer Glo (Promega) was added to the assay plates to quantify the amount of luciferase. EC50 and CC50 values were defined as the compound concentration that causes a 50% decrease in luminescence signal, and were calculated using a sigmoidal dose-response model to generate curve fits.
(§1) MT-4 HIV High Resolution Antiviral Assay
(§2) Assay protocol is identical to that described for the MT-4 antiviral assay with the following changes: Each drug is run in 2 series of quadruplicates with different starting concentrations for each series and 19 1.5 fold dilutions performed across the plate. […] Data is analyzed and Hill coefficients determined in Graph Pad Prism (San Diego, Calif.). EC95s were determined by the formula EC95=(19)^I/hill coefficient×EC50. HD values were determined for certain compounds and reported in Table 5 below as an illustrative example.

For data set [4], the system named is HIV-1 (IIIB) in MT-4 cells. Kind of data set: Protein adjusted EC95 (high resolution antiviral assay with equilibrium dialysis plasma protein binding). Format: cell-based. The note with it: EC95 adjusted for plasma protein binding (10% plasma vs cell culture media). The protocol: as §1, §2
Equilibrium Dialysis Assay
Pooled plasma (from at least 3 males and 3 females) was from Bioreclamation IVT. Sodium EDTA was used as the anticoagulant. 10% plasma was diluted in 0.133M phosphate buffer consisted of 1.5% (w/v) Sodium EDTA.
RPMI cell culture media consisted 10% FBS was provided by biology department, Gilead Sciences, Inc.
Plasma Protein Binding Assay:
Studies were conducted in duplicate or triplicate using a Dianorm Equilibrium Dialyser (Harvard Apparatus, Holliston Mass.) with each cell consisting of a semipermeable membrane (2.4 cm working diameter) separating two 1 mL PTFE half-cells (Weder HG, Schildknecht J, Kesselring P. A new equilibrium dialyzing system. American Laboratory. 1971; 10: 15-21). Prior to the study, the dialysis membrane was soaked for approximately one hour in 0.133 M phosphate buffer, pH 7.4. 10% plasma and cell culture media spiked with 1 μM compound (1 mL) were placed into opposite sides of the assembled dialysis cells and the dialysis cells were then rotated slowly in a 37° C. water bath. After the equilibration period, matrix-containing samples from both sides were drained into pre-weighed polypropylene tubes. Post-dialysis 10% plasma samples were transferred into centrifuge tubes containing 1 mL of blank cell culture media. Post-dialysis cell culture media samples were transferred into centrifuge tubes containing 1 mL of blank 10% plasma. All samples weights were measured and recorded for calculations of volume shift and recovery. […]
In general terms: In equilibrium dialysis free small molecules cross a membrane that holds back macromolecules.

In data set [5] the test system is HIV-1 (IIIB) in MT-4 cells. Kind of data set: MT-4 HIV assay. In kind it is cell-based. The note with it: Human immunodeficiency virus 1, MT4, 120 h; HIV-1 (IIIB), MT-4 cells, 5 days, Cell Titer Glo; read-out: EC50. The gist of the method: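 Antiviral activity was read by Cell Titer Glo after a 5-day, 37 °C culture of MT-4 cells pre-infected with a 1:250 dilution of HIV-1 (IIIB). Compounds were tested as threefold dilution series in complete RPMI. Controls were no drug, mock infection and 5 uM AZT.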
In general terms: Cellular ATP, detected with luciferase, serves as a proxy for viable cell number.

The conditions of data set [6]: microsomes. The gist of the method:
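Depletion measured by LC/MS/MS at 2, 12, 25, 45 and 65 minutes after 1 uM compound was added to liver microsomes (0.5 mg/mL; dog, rat, human) with NADPH-regenerating cofactor, in duplicate. In vitro t1/2 converted to Clint.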

Data set [7] is described as follows: 3H Human Predicted Clearance Assay (tritiated analogs). Format: in vitro ADME. The note with it: human, 1 uM. As to the method: 3H Human Predicted Clearance Assay:
For certain compounds, tritiated analogs (H^3) were prepared to further determined their human predicted clearance with increased resolution. Those studies were performed as described above using the tritiated analogs. Data from those compounds is found in Table 2 below and reported in FIG. 1 (note ATV and DRV were not tritiated).

Setting [8] is: male, beagle, dog, in vivo, po, 2 mg/kg.
Setting [9] is: male, SD, rat, in vivo, po, 2.5 mg/kg.

Structures are written as SMILES.

As for `CC(C)CN(C[C@@H](O)[C@H](Cc1ccccc1)NC(=O)O[C@H]1CO[C@H]2OCC[C@H]21)S(=O)(=O)c1ccc(N)cc1` [darunavir, [(3aS,4R,6aR)-2,3,3a,4,5,6a-hexahydrofuro[2,3-b]furan-4-yl] N-[(2S,3R)-4-[(4-aminophenyl)sulfonyl-(2-methylpropyl)amino]-3-hydroxy-1-phenylbutan-2-yl]carbamate, reference compound], the “DOG PO F” value in “in vivo [1]” (male beagle dogs, oral gavage, PO dose 2 mg/kg) is 38%. Further, the Vd (commonly the apparent volume that relates the amount in the body to the concentration in plasma or blood) in the data set “in vivo [1]” (male, beagle, dog, in vivo) stood at 0.87 L/kg; in “in vivo [2]” (male, SD, rat, in vivo), 0.73 L/kg. The “RAT PO F” value in “in vivo [2]” (male SD rats, oral gavage, PO dose 2.0 mg/kg) stood at 24%. In addition, the response in data set [3] (Human immunodeficiency virus 1, IIIB, MT4) was half-maximal at 7.2 nM (EC50). Also, the EC95 (in general, the concentration at which the effect reaches the 95% level) in data set [3] (calculated from Hill coefficient and EC50) is 19.9 nM. The compound further had a Hill-coefficient in data set [3] (high resolution assay, Graph Pad Prism) of 2.9. Further, the “Protein Adjusted EC95” value in data set [4] worked out at 42 nM.

Take `COC(=O)N[C@H](C(=O)N[C@@H](Cc1ccc(C#Cc2cnc(N3CC4CCC(C3)N4C3COC3)nc2)cc1)[C@@H](O)CN(Cc1c(F)cc(-c2ccn(C(F)F)n2)cc1F)NC(=O)[C@@H](NC(=O)OC)C(C)(C)C(F)(F)F)C(C)(C)C(F)(F)F` [Example 171, Methyl ((5S,8S,9S,14S)-11-(4-(1-(difluoromethyl)-1H-pyrazol-3-yl)-2,6-difluorobenzyl)-16,16,16-trifluoro-9-hydroxy-15,15-dimethyl-8-(4-((2-(8-(oxetan-3-yl)-3,8-diazabicyclo[3.2.1]octan-3-yl)pyrimidin-5-yl)ethynyl)benzyl)-3,6,13-trioxo-5-(1,1,1-trifluoro-2-methylpropan-2-yl)-2-oxa-4,7,11,12-tetraazahexadecan-14-yl)carbamate]: the concentration for a half-maximal effect (EC50) (as a rule, the concentration needed to bring the measured effect to its halfway point) in data set [5] was determined as 4.59 nM. For the same compound, in data set [6] (dog), the “Dog. Pred. Cl.” value is recorded as 0.27 L/H/kg. Besides, in data set [6], the “Human Pred Cl.” value is recorded as below 0.11 L/H/kg and the “Rat. Pred. Cl.” value is given as 0.215 L/H/kg. In data set [7], the “3H Human Predicted Cl.” value is reported as 0.02. Besides, the “DOG IV CL” value in “in vivo [1]” (dog, in vivo) worked out at 0.26 L/h/kg. The “DOG IV T1/2” value in the data set “in vivo [1]” (male beagle dogs) amounted to 13.4 h. In addition, in the data set “in vivo [1]” (male, beagle, dog, in vivo), the Vd was found to be 3.12 L/kg. In “in vivo [1]” (setting [8]), the “DOG PO F” value came out at 23%. The compound further came in with a distribution volume (Vd) in “in vivo [2]” (male, SD, rat, in vivo) of 8.11 L/kg. The “RAT PO F” value in the data set “in vivo [2]” (setting [9]) is recorded as 39%. Further, in “in vivo [2]” (rat, in vivo), the “RAT IV CL” value worked out at 0.32 L/h/kg and the “RAT IV T1/2” value worked out at 22.5 h.

`COC(=O)N[C@H](C(=O)N[C@@H](Cc1ccc(C#Cc2ccc(N3CC4CCC(C3)N4C3COC3)nc2)cc1)[C@@H](O)CN(Cc1c(F)cc(-c2ccn(C3CC3)n2)cc1F)NC(=O)[C@@H](NC(=O)OC)C(C)(C)C(F)(F)F)C(C)(C)C(F)(F)F` [Example 170, Methyl ((5S,8S,9S,14S)-11-(4-(1-cyclopropyl-1H-pyrazol-3-yl)-2,6-difluorobenzyl)-16,16,16-trifluoro-9-hydroxy-15,15-dimethyl-8-(4-((6-(8-(oxetan-3-yl)-3,8-diazabicyclo [3.2.1]octan-3-yl)pyridin-3-yl)ethynyl)benzyl)-3,6,13-trioxo-5-(1,1,1-trifluoro-2-methylpropan-2-yl)-2-oxa-4,7,11,12-tetraazahexadecan-14-yl)carbamate]: in data set [5], the concentration giving a half-maximal response (EC50) was determined as 4.13 nM. In addition, in data set [6], the “Human Pred Cl.” value was below 0.11 L/H/kg and the “Rat. Pred. Cl.” value is on record as below 0.18 L/H/kg. Further, the “3H Human Predicted Cl.” value in data set [7] is reported as 0.05. In addition, in the data set “in vivo [1]” (dog, in vivo), the “DOG IV CL” value amounted to 1.39 L/h/kg. In addition, the “DOG IV T1/2” value in “in vivo [1]” (male beagle dogs) worked out at 7.62 h. Further, in “in vivo [1]” (male, beagle, dog, in vivo), the Vd came to 4.35 L/kg. Besides, the “DOG PO F” value in the data set “in vivo [1]” (setting [8]) was determined as 2.45%. Further, in the data set “in vivo [2]” (male, SD, rat, in vivo), the Vd came to 3.32 L/kg. In addition, the “RAT PO F” value in the data set “in vivo [2]” (setting [9]) stood at 36.6%. Besides, in the data set “in vivo [2]” (rat, in vivo), the “RAT IV CL” value came out at 0.35 L/h/kg and the “RAT IV T1/2” value was 9.38 h.

In the case of `COC(=O)N[C@H](C(=O)NN(Cc1c(F)cc(-c2ccn(C(F)F)n2)cc1F)C[C@H](O)[C@H](Cc1ccc(C#Cc2ccc(N3CC4CCC(C3)N4C3COC3)nc2)cc1)NC(=O)[C@@H](NC(=O)OC)C(C)(C)C(F)(F)F)C(C)(C)C` [Example 73, Methyl ((5S,8S,9S,14S)-11-(4-(1-(difluoromethyl)-1H-pyrazol-3-yl)-2,6-difluorobenzyl)-9-hydroxy-15,15-dimethyl-8-(4-((6-(8-(oxetan-3-yl)-3,8-diazabicyclo[3.2.1]octan-3-yl)pyridin-3-yl)ethynyl)benzyl)-3,6,13-trioxo-5-(1,1,1-trifluoro-2-methylpropan-2-yl)-2-oxa-4,7,11,12-tetraazahexadecan-14-yl)carbamate], in data set [5], the EC50 worked out at 4.72 nM. In data set [6], the “Human Pred Cl.” value is recorded as 0.13 L/H/kg and the “Rat. Pred. Cl.” value is given as below 0.18 L/H/kg. Moreover, the “3H Human Predicted Cl.” value in data set [7] is reported as 0.09. Also, the Vd in “in vivo [2]” (male, SD, rat, in vivo) was 3.34 L/kg. In the data set “in vivo [2]” (setting [9]), the “RAT PO F” value amounted to 35%. Besides, in “in vivo [2]” (rat, in vivo), the “RAT IV CL” value turned out to be 0.32 L/h/kg and the “RAT IV T1/2” value came to 9.43 h.
